Experimental data from patent US9833497B2, “Human originated EGF domain proteins and use of the same” (CHENGDU SOURCEBIO LIMITED-LIABILITY COMPANY, priority 2013, dated 2017).

Assays:
Type in all cases: cell-based
Enterobacter cloacae = experiment: MIC against Gram-negative bacteria: Enterobacter cloacae; conditions: for MIC / MIC (μg/mL) E. cloacae: E. cloacae
Method in brief: (§1)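 Antibacterial activity of purified human EGF domain proteins: two-fold concentration series, triplicate wells, LB broth, 5×10^5 CFU/mL bacteria, 37° C shaking incubation. The lowest concentration without growth defines the MIC.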

Klebsiella pneumonia = experiment: MIC against Gram-negative bacteria: Klebsiella pneumonia; conditions: for MIC / MIC (μg/mL) K. pneumonia: K. pneumonia
Method in brief: as §1

E. coli DH5α = experiment: Antibacterial activity: MIC and growth curve against E. coli DH5α in 96-well plate; conditions: minimal inhibitory concentration against E. coli DH5α; 96-well plate, 5×10^5 CFU/mL, 37° C., judged after 8 h
Method in brief: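 MIC taken as lowest protein level with no bacterial growth, tracked by A600 every 30 min during 37 °C, 175 rpm culture. Two-fold protein series 50-12.5 μg/mL final, triplicate wells, against 5×10^5 CFU/mL of LB-washed mid-log cells.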

Proteus mirabilis = experiment: MIC against Gram-negative bacteria: Proteus mirabilis; conditions: for MIC / MIC (μg/mL) P. mirabilis: P. mirabilis
Method in brief: as §1

Aeromonas hydrophila = experiment: MIC against Gram-negative bacteria: Aeromonas hydrophila; conditions: for MIC / MIC (μg/mL) A. hydrophila: A. hydrophila
Method in brief: as §1

Pseudomonas aeruginosa = experiment: MIC against Gram-negative bacteria: Pseudomonas aeruginosa; conditions: for MIC / MIC (μg/mL) P. aeruginosa: P. aeruginosa
Method in brief: as §1

Proteus vulgaris = experiment: MIC against Gram-negative bacteria: Proteus vulgaris; conditions: for MIC / MIC (μg/mL) P. vulgaris: P. vulgaris
Method in brief: as §1

E. coli BL21 = experiment: MIC against Gram-negative bacteria: E. coli BL21
Method in brief: as §1

Moraxella catarrhalis = experiment: MIC against Gram-negative bacteria: Moraxella catarrhalis; conditions: for MIC / MIC (μg/mL) M. catarrhalis: M. catarrhalis
Method in brief: as §1

Serratia marcescens = experiment: MIC against Gram-negative bacteria: Serratia marcescens; conditions: for MIC / MIC (μg/mL) S. marcescens: S. marcescens
Method in brief: as §1

Citrobacter diversus = experiment: MIC against Gram-negative bacteria: Citrobacter diversus; conditions: for MIC / MIC (μg/mL) C. diversus: C. diversus
Method in brief: as §1

[1] = E. coli BL21, 10 h cultivation at 37° C.
[2] = 10 h cultivation at 37° C., 5×10^5 CFU/mL
[3] = E. coli BL21, 10 h cultivation at 37° C., 5×10^5 CFU/mL
[4] = 96-well plate, 5×10^5 CFU/mL, 37° C., 10 h

Substance	MIC (Enterobacter cloacae; 10 h cultivation at 37° C.)	MIC (Klebsiella pneumonia; 10 h cultivation at 37° C.)	MIC (E. coli DH5α)	MIC (Proteus mirabilis; 10 h cultivation at 37° C.)	MIC (Aeromonas hydrophila; 10 h cultivation at 37° C.)	MIC (Pseudomonas aeruginosa; 10 h cultivation at 37° C.)	MIC (Proteus vulgaris; 10 h cultivation at 37° C.)	MIC (E. coli BL21; [1])	MIC (Moraxella catarrhalis; 10 h cultivation at 37° C.)	MIC (Serratia marcescens; 10 h cultivation at 37° C.)	MIC (Citrobacter diversus; 10 h cultivation at 37° C.)	MIC (μg/mL) E. cloacae (Enterobacter cloacae; [2])	MIC (μg/mL) K. pneumonia (Klebsiella pneumonia; [2])	MIC (μg/mL) P. mirabilis (Proteus mirabilis; [2])	MIC (μg/mL) A. hydrophila (Aeromonas hydrophila; [2])	MIC (μg/mL) P. aeruginosa (Pseudomonas aeruginosa; [2])	MIC (μg/mL) P. vulgaris (Proteus vulgaris; [2])	MIC (μg/mL) E. coli BL21 (E. coli BL21; [3])	MIC (μg/mL) M. catarrhalis (Moraxella catarrhalis; [2])	MIC (μg/mL) S. marcescens (Serratia marcescens; [2])	further results
PRT977 (EVDPCLAQPCQHGGTCRGYMGGYMCECLPGYNGDNCE; listed as Homo sapiens)	12.5 µg/mL	50 µg/mL	12.5 µg/mL	12.5 µg/mL	25 µg/mL	12.5 µg/mL	50 µg/mL	50 µg/mL	25 µg/mL	25 µg/mL	50 µg/mL										
PRT1271 (DTNECSINNGGCQQVCVNTVGSYECQCHPGYKLHWNKKDCV; listed as Homo sapiens)			25 µg/mL																		MIC against E. cloacae (Enterobacter cloacae; Enterobacter cloacae, 96-well plate, 5×10^5 CFU/mL, 37° C., 10 h): 12.5 µg/mL; MIC against K. pneumonia (Klebsiella pneumonia; Klebsiella pneumonia, 96-well plate, 5×10^5 CFU/mL, 37° C., 10 h): 50 µg/mL; MIC against P. mirabilis (Proteus mirabilis; Proteus mirabilis, 96-well plate, 5×10^5 CFU/mL, 37° C., 10 h): 12.5 µg/mL; MIC against A. hydrophila (Aeromonas hydrophila; Aeromonas hydrophila, 96-well plate, 5×10^5 CFU/mL, 37° C., 10 h): 50 µg/mL; MIC against P. aeruginosa (Pseudomonas aeruginosa; Pseudomonas aeruginosa, 96-well plate, 5×10^5 CFU/mL, 37° C., 10 h): 12.5 µg/mL; MIC against P. vulgaris (Proteus vulgaris; Proteus vulgaris, 96-well plate, 5×10^5 CFU/mL, 37° C., 10 h): 50 µg/mL; MIC against E. coli BL21 (E. coli BL21; E. coli BL21, 96-well plate, 5×10^5 CFU/mL, 37° C., 10 h): 50 µg/mL; MIC against M. catarrhalis (Moraxella catarrhalis; Moraxella catarrhalis, 96-well plate, 5×10^5 CFU/mL, 37° C., 10 h): 50 µg/mL; MIC against S. marcescens (Serratia marcescens; Serratia marcescens, 96-well plate, 5×10^5 CFU/mL, 37° C., 10 h): 12.5 µg/mL; MIC against C. diversus (Citrobacter diversus; Citrobacter diversus, 96-well plate, 5×10^5 CFU/mL, 37° C., 10 h): 12.5 µg/mL
PRT238 (DICDPNPCENGGICLPGLADGSFSCECPDGFTDPNCS; listed as Homo sapiens)			25 µg/mL									25 µg/mL	50 µg/mL	12.5 µg/mL	12.5 µg/mL	25 µg/mL	25 µg/mL	12.5 µg/mL	12.5 µg/mL	12.5 µg/mL	MIC (μg/mL) C. diversus (Citrobacter diversus; [2]): 25 µg/mL
PRT866 (CQCHGHAARCAARARPPRCHCRHHTTGPGCESCRPSHRDWPWRPATPRHPHPCLP; listed as Homo sapiens)			25 µg/mL									12.5 µg/mL	12.5 µg/mL	12.5 µg/mL	12.5 µg/mL	25 µg/mL	25 µg/mL	12.5 µg/mL	12.5 µg/mL	12.5 µg/mL	MIC (μg/mL) C. diversus (Citrobacter diversus; [2]): 12.5 µg/mL
PRT998 (VPLCAPNLCQPKQICKDQKDKANCLCPDGSPGCA; listed as Homo sapiens)	12.5 µg/mL	50 µg/mL	12.5 µg/mL	25 µg/mL	50 µg/mL	12.5 µg/mL	50 µg/mL	50 µg/mL	12.5 µg/mL	25 µg/mL	25 µg/mL										
PRT439 (DINECQESSPCHQRCFNAIGSFHCGCEPGYQLKGRKCM; listed as Homo sapiens)			25 µg/mL																		MIC (Enterobacter cloacae; [2]): 25 µg/mL; MIC (Klebsiella pneumonia; [2]): 50 µg/mL; MIC (Proteus mirabilis; [2]): 12.5 µg/mL; MIC (Aeromonas hydrophila; [2]): 12.5 µg/mL; MIC (Pseudomonas aeruginosa; [2]): 25 µg/mL; MIC (Proteus vulgaris; [2]): 50 µg/mL; MIC (E. coli BL21; [3]): 12.5 µg/mL; MIC (Moraxella catarrhalis; [2]): 50 µg/mL; MIC (Serratia marcescens; [2]): 12.5 µg/mL; MIC (Citrobacter diversus; [2]): 25 µg/mL
PRT500 (CNCDPVGSLSSVCIKDDLHSDLHNGKQPGQCPCKEGYTGEKCDRCQLGYKDYPTCVS; listed as Homo sapiens)			25 µg/mL																		MIC against E. cloacae (Enterobacter cloacae; [4]): 25 µg/mL; MIC against K. pneumonia (Klebsiella pneumonia; [4]): 12.5 µg/mL; MIC against P. mirabilis (Proteus mirabilis; [4]): 25 µg/mL; MIC against A. hydrophila (Aeromonas hydrophila; [4]): 50 µg/mL; MIC against P. aeruginosa (Pseudomonas aeruginosa; [4]): 25 µg/mL; MIC against P. vulgaris (Proteus vulgaris; [4]): 50 µg/mL; MIC against E. coli BL21 (E. coli BL21; [4]): 50 µg/mL; MIC against M. catarrhalis (Moraxella catarrhalis; [4]): 12.5 µg/mL; MIC against S. marcescens (Serratia marcescens; [4]): 25 µg/mL; MIC against C. diversus (Citrobacter diversus; [4]): 25 µg/mL
PRT244 (TCAMINCQYSCEDTEEGPQCLCPSSGLRLAPNGRDCL; listed as Homo sapiens)			50 µg/mL									12.5 µg/mL	12.5 µg/mL	12.5 µg/mL	25 µg/mL	12.5 µg/mL	25 µg/mL	12.5 µg/mL	25 µg/mL	12.5 µg/mL	MIC (μg/mL) C. diversus (Citrobacter diversus; [2]): 12.5 µg/mL
PRT1369 (ASGSCPDDCNDQGRCVRGRCVCFPGYTGPSC; listed as Homo sapiens)			12.5 µg/mL																		MIC against E. cloacae (Enterobacter cloacae; Enterobacter cloacae, 5×10^5 CFU/mL, 10 h cultivation at 37° C.): 25 µg/mL; MIC against K. pneumonia (Klebsiella pneumonia; Klebsiella pneumonia, 5×10^5 CFU/mL, 10 h cultivation at 37° C.): 12.5 µg/mL; MIC against P. mirabilis (Proteus mirabilis; Proteus mirabilis, 5×10^5 CFU/mL, 10 h cultivation at 37° C.): 25 µg/mL; MIC against A. hydrophila (Aeromonas hydrophila; Aeromonas hydrophila, 5×10^5 CFU/mL, 10 h cultivation at 37° C.): 12.5 µg/mL; MIC against P. aeruginosa (Pseudomonas aeruginosa; Pseudomonas aeruginosa, 5×10^5 CFU/mL, 10 h cultivation at 37° C.): 12.5 µg/mL; MIC against P. vulgaris (Proteus vulgaris; Proteus vulgaris, 5×10^5 CFU/mL, 10 h cultivation at 37° C.): 12.5 µg/mL; MIC against E. coli BL21 (E. coli BL21; E. coli BL21, 5×10^5 CFU/mL, 10 h cultivation at 37° C.): 12.5 µg/mL; MIC against M. catarrhalis (Moraxella catarrhalis; Moraxella catarrhalis, 5×10^5 CFU/mL, 10 h cultivation at 37° C.): 12.5 µg/mL; MIC against S. marcescens (Serratia marcescens; Serratia marcescens, 5×10^5 CFU/mL, 10 h cultivation at 37° C.): 25 µg/mL; MIC against C. diversus (Citrobacter diversus; Citrobacter diversus, 5×10^5 CFU/mL, 10 h cultivation at 37° C.): 12.5 µg/mL
PRT984 (SNASCAAAPCLHGGSCRPAPLAPFFRCACAQGWTGPRCE; listed as Homo sapiens)	25 µg/mL	50 µg/mL	50 µg/mL	50 µg/mL	12.5 µg/mL	25 µg/mL	25 µg/mL	12.5 µg/mL	12.5 µg/mL	12.5 µg/mL	12.5 µg/mL										
